Laboratory results published in patent US12303497B2, “Anti-androgens for the treatment of metastatic castration-sensitive prostate cancer” (priority 2019, dated 2025).

Assays:
[1] = Clinical pharmacokinetics of apalutamide and N-desmethyl apalutamide
CYP3A4 [2] = molecular target: T1, CYP3A4 (Homo sapiens, UniProt P08684); assay: In vitro CYP inhibition
[3] = tested on: bacterial reverse mutation (Ames) assay; assay type: cell-based
[4] = tested on: multidrug and toxin extrusions (MATEs); assay: In vitro transporter inhibition; assay type: in vitro ADME
P-gp = P-gp (Homo sapiens, UniProt P08183); assay: In vitro transporter substrate study
Sequence of P-gp (P08183 whole entry): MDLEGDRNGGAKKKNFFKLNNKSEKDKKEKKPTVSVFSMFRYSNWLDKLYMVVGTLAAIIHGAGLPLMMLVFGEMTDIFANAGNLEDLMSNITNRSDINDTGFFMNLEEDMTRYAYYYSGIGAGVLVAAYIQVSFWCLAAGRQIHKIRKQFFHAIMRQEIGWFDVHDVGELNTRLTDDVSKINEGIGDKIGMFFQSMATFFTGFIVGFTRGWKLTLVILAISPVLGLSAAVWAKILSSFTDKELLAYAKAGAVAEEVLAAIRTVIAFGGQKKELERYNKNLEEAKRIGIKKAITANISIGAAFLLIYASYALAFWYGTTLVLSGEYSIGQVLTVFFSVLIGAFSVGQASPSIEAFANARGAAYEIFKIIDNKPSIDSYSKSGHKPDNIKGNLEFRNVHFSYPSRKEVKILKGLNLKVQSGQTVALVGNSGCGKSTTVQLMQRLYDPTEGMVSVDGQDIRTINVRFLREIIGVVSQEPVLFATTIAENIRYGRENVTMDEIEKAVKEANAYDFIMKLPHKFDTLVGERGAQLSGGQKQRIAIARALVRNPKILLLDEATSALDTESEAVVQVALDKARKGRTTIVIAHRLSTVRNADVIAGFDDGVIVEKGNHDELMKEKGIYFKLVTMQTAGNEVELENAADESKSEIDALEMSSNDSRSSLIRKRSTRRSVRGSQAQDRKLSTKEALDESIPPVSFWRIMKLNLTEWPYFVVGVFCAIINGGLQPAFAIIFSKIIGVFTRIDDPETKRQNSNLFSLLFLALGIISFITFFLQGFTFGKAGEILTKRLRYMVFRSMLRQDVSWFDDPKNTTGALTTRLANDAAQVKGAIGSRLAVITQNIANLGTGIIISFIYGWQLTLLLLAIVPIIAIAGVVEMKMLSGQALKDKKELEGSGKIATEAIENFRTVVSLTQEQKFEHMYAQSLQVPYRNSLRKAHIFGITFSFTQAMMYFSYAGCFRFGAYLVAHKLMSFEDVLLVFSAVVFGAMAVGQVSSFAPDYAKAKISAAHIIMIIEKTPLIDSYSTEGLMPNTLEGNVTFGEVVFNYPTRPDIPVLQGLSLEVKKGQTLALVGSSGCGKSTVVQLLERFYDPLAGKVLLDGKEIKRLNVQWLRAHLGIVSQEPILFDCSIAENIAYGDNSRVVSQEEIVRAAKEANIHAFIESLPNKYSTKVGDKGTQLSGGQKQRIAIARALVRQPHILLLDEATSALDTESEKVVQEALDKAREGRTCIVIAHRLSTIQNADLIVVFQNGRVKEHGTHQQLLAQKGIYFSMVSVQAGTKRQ

dogs = assay: Repeat-dose toxicity study in dogs (up to 39 weeks); assay type: in vivo, dog
[5] = tested on: in vitro chromosome aberration assay; assay: In vitro chromosome aberration assay; assay type: cell-based
CYP3A4 [6] = molecular target: T1, CYP3A4; assay: Co-administration with itraconazole (strong CYP3A4 inhibitor); assay type: in vivo; design: endogenous in cells; host or cells: human subjects, in vivo; settings: ERLEADA 240 mg single dose with itraconazole
male rats = assay: Repeat-dose toxicity study in male rats (up to 26 weeks); assay type: in vivo, rat

T1 sequence (P08684 whole entry): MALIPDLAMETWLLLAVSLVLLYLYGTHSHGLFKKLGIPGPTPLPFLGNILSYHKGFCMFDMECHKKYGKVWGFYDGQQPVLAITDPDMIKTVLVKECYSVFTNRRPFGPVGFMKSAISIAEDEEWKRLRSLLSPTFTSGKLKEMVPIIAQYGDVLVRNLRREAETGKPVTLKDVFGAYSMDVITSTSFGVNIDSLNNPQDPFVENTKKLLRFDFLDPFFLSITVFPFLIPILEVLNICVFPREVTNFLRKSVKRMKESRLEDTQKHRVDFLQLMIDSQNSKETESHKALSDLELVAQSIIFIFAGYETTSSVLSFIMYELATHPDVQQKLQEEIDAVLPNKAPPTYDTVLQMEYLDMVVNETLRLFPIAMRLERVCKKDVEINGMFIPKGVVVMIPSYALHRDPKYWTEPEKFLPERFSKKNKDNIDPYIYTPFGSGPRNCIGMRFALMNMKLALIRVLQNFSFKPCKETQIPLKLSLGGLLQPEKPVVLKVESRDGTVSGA

Compound: CNC(=O)c1ccc(N2C(=S)N(c3cnc(C#N)c(C(F)(F)F)c3)C(=O)C23CCC3)cc1F [Apalutamide, 4-[7-(6-cyano-5-trifluoromethylpyridin-3-yl)-8-oxo-6-thioxo-5,7-diazaspiro[3.4]oct-5-yl]-2-fluoro-N-methylbenzamide]
- CL/F ([1]; after single dosing): 1.3 L/h
- Pharmacokinetics in specific populations ([1]; age 18-94 years, race, mild to moderate renal impairment, mild to moderate hepatic impairment): No clinically significant differences
- CL/F ([1]; at steady-state after once-daily dosing): 2.0 L/h
- Mean apparent volume of distribution at steady-state ([1]; human, in vivo): approximately 276 L
- Median time to achieve peak plasma concentration (tmax) ([1]; range: 1 to 5 hours): 2 h
- Time to steady-state ([1]; recommended dosage (240 mg once daily)): 4 weeks
- AUC at steady-state, mean ([1]; recommended dosage, SD 32 (apalutamide), 23 (N-desmethyl apalutamide)): 100 µg·h/mL
- Dose dependence of Cmax and AUC ([1]; repeated once-daily dosing of 30 to 480 mg): increased proportionally
- CYP3A4 inhibition (CYP3A4 [2]): weak inhibitors
- Mutagenicity [3]: did not induce mutations
- Inhibition of MATEs [4]: inhibit
- Substrate for P-gp (P-gp): substrates
- Dose at which atrophy of prostate gland and seminal vesicles, aspermia/hypospermia, tubular degeneration and/or interstitial cell hyperplasia or hypertrophy were observed (dogs): ≥ 2.5 mg/kg/day
- Genotoxicity [5]: not genotoxic
- Apalutamide AUC change (CYP3A4 [6]): similar
- Apalutamide Cmax decrease (CYP3A4 [6]): 22%
- Dose at which atrophy of prostate gland and seminal vesicles, aspermia/hypospermia, tubular degeneration and/or interstitial cell hyperplasia or hypertrophy were observed (male rats): ≥ 25 mg/kg/day
